Measurements from PubChem BioAssay (NCI).
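Interpolation was linear, between the two tested concentrations surrounding the appropriate level; five concentrations were tested over 48 hours in 96-well plates. TGI: total growth inhibition.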

Legend:
Test in all cases: DTP human tumour cell line panel, 48 h
786-0 renal = system: 786-0 renal
A498 renal = system: A498 renal
A549 NSCLC = system: A549 NSCLC
ACHN renal = system: ACHN renal
CAKI-1 renal = system: CAKI-1 renal
CCRF-CEM leukemia = system: CCRF-CEM leukemia
COLO 205 colon = system: COLO 205 colon
DLD-1 colon = system: DLD-1 colon
DMS 114 small cell lung = system: DMS 114 small cell lung
EKVX NSCLC = system: EKVX NSCLC
HCC-2998 colon = system: HCC-2998 colon
HCT-116 colon = system: HCT-116 colon
HCT-15 colon = system: HCT-15 colon
HOP-62 NSCLC = system: HOP-62 NSCLC
HT29 colon = system: HT29 colon
IGROV1 ovarian = system: IGROV1 ovarian
K-562 leukemia = system: K-562 leukemia
KM12 colon = system: KM12 colon
KM20L2 colon = system: KM20L2 colon
LXFL 529 NSCLC = system: LXFL 529 NSCLC
M14 melanoma = system: M14 melanoma
M19-MEL melanoma = system: M19-MEL melanoma
MALME-3M melanoma = system: MALME-3M melanoma
MOLT-4 leukemia = system: MOLT-4 leukemia
NCI-H23 lung = system: NCI-H23 lung
NCI-H460 lung = system: NCI-H460 lung
NCI-H522 lung = system: NCI-H522 lung
OVCAR-3 ovarian = system: OVCAR-3 ovarian
OVCAR-4 ovarian = system: OVCAR-4 ovarian
OVCAR-5 ovarian = system: OVCAR-5 ovarian
OVCAR-8 ovarian = system: OVCAR-8 ovarian
RPMI-8226 leukemia = system: RPMI-8226 leukemia
SF-268 CNS = system: SF-268 CNS
SF-295 CNS = system: SF-295 CNS
SF-539 CNS = system: SF-539 CNS
SK-MEL-2 melanoma = system: SK-MEL-2 melanoma
SK-MEL-28 melanoma = system: SK-MEL-28 melanoma
SK-MEL-5 melanoma = system: SK-MEL-5 melanoma
SK-OV-3 ovarian = system: SK-OV-3 ovarian
SN12C renal = system: SN12C renal
SNB-19 CNS = system: SNB-19 CNS
SNB-75 CNS = system: SNB-75 CNS
SNB-78 CNS = system: SNB-78 CNS
SW-620 colon = system: SW-620 colon
TK-10 renal = system: TK-10 renal
U251 CNS = system: U251 CNS
UACC-257 melanoma = system: UACC-257 melanoma
UACC-62 melanoma = system: UACC-62 melanoma
UO-31 renal = system: UO-31 renal
XF 498 CNS = system: XF 498 CNS
DMS 273 small cell lung = system: DMS 273 small cell lung
HL-60(TB) leukemia = system: HL-60(TB) leukemia
LOX IMVI melanoma = system: LOX IMVI melanoma
NCI-H226 lung = system: NCI-H226 lung
RXF 393 renal = system: RXF 393 renal
SR leukemia = system: SR leukemia

COc1ccc(Cc2nccc3cc(OC)c(OC)cc23)cc1
TGI (786-0 renal): > 100 µM
TGI (A498 renal): > 100 µM
TGI (A549 NSCLC): > 100 µM
TGI (ACHN renal): > 100 µM
TGI (CAKI-1 renal): > 100 µM
TGI (CCRF-CEM leukemia): > 100 µM
TGI (COLO 205 colon): > 100 µM
TGI (DLD-1 colon): > 100 µM
TGI (DMS 114 small cell lung): > 100 µM
TGI (EKVX NSCLC): > 100 µM
TGI (HCC-2998 colon): > 100 µM
TGI (HCT-116 colon): > 100 µM
TGI (HCT-15 colon): > 100 µM
TGI (HOP-62 NSCLC): > 100 µM
TGI (HT29 colon): > 100 µM
TGI (IGROV1 ovarian): > 100 µM
TGI (K-562 leukemia): > 100 µM
TGI (KM12 colon): > 100 µM
TGI (KM20L2 colon): > 100 µM
TGI (LXFL 529 NSCLC): > 100 µM
TGI (M14 melanoma): > 100 µM
TGI (M19-MEL melanoma): > 100 µM
TGI (MALME-3M melanoma): > 100 µM
TGI (MOLT-4 leukemia): > 100 µM
TGI (NCI-H23 lung): > 100 µM
TGI (NCI-H460 lung): > 100 µM
TGI (NCI-H522 lung): > 100 µM
TGI (OVCAR-3 ovarian): > 100 µM
TGI (OVCAR-4 ovarian): > 100 µM
TGI (OVCAR-5 ovarian): > 100 µM
TGI (OVCAR-8 ovarian): > 100 µM
TGI (RPMI-8226 leukemia): > 100 µM
TGI (SF-268 CNS): > 100 µM
TGI (SF-295 CNS): > 100 µM
TGI (SF-539 CNS): > 100 µM
TGI (SK-MEL-2 melanoma): > 100 µM
TGI (SK-MEL-28 melanoma): > 100 µM
TGI (SK-MEL-5 melanoma): > 100 µM
TGI (SK-OV-3 ovarian): > 100 µM
TGI (SN12C renal): > 100 µM
TGI (SNB-19 CNS): > 100 µM
TGI (SNB-75 CNS): > 100 µM
TGI (SNB-78 CNS): > 100 µM
TGI (SW-620 colon): > 100 µM
TGI (TK-10 renal): > 100 µM
TGI (U251 CNS): > 100 µM
TGI (UACC-257 melanoma): 62.2 µM
TGI (UACC-62 melanoma): > 100 µM
TGI (UO-31 renal): 90.8 µM
TGI (XF 498 CNS): 83.6 µM

FC(F)(F)c1cccc(C=NC23CC4CC(CC(C4)C2)C3)c1
TGI (786-0 renal): > 100 µM
TGI (A498 renal): > 100 µM
TGI (A549 NSCLC): > 100 µM
TGI (ACHN renal): > 100 µM
TGI (CAKI-1 renal): > 100 µM
TGI (COLO 205 colon): > 100 µM
TGI (DMS 114 small cell lung): > 100 µM
TGI (DMS 273 small cell lung): > 100 µM
TGI (EKVX NSCLC): > 100 µM
TGI (HCC-2998 colon): > 100 µM
TGI (HCT-116 colon): > 100 µM
TGI (HCT-15 colon): > 100 µM
TGI (HL-60(TB) leukemia): > 100 µM
TGI (HOP-62 NSCLC): > 100 µM
TGI (HT29 colon): > 100 µM
TGI (IGROV1 ovarian): > 100 µM
TGI (K-562 leukemia): > 100 µM
TGI (KM12 colon): > 100 µM
TGI (KM20L2 colon): > 100 µM
TGI (LOX IMVI melanoma): > 100 µM
TGI (M14 melanoma): > 100 µM
TGI (M19-MEL melanoma): > 100 µM
TGI (MALME-3M melanoma): > 100 µM
TGI (MOLT-4 leukemia): > 100 µM
TGI (NCI-H226 lung): > 100 µM
TGI (NCI-H23 lung): > 100 µM
TGI (NCI-H460 lung): > 100 µM
TGI (OVCAR-3 ovarian): > 100 µM
TGI (OVCAR-4 ovarian): > 100 µM
TGI (OVCAR-5 ovarian): > 100 µM
TGI (OVCAR-8 ovarian): > 100 µM
TGI (RPMI-8226 leukemia): > 100 µM
TGI (RXF 393 renal): > 100 µM
TGI (SF-268 CNS): > 100 µM
TGI (SF-295 CNS): > 100 µM
TGI (SF-539 CNS): > 100 µM
TGI (SK-MEL-2 melanoma): > 100 µM
TGI (SK-MEL-28 melanoma): > 100 µM
TGI (SK-MEL-5 melanoma): > 100 µM
TGI (SK-OV-3 ovarian): > 100 µM
TGI (SN12C renal): > 100 µM
TGI (SNB-19 CNS): > 100 µM
TGI (SNB-75 CNS): > 100 µM
TGI (SNB-78 CNS): > 100 µM
TGI (SR leukemia): > 100 µM
TGI (SW-620 colon): > 100 µM
TGI (TK-10 renal): > 100 µM
TGI (U251 CNS): > 100 µM
TGI (UACC-257 melanoma): > 100 µM
TGI (UO-31 renal): > 100 µM
TGI (XF 498 CNS): > 100 µM
